According to US11241436B2, “Autophagy inducers for treatment of CNS conditions” (Northwestern University, priority 2017, dated 2022):

Experiments:
[1] = tested on: HEK293 cells stably expressing APP; test: Dot blot of secreted Aβ42 in conditioned media of APP-HEK293 cells; format: cell-based, human
Experimental: Cells were transfected with non-targeting control (NC) or ATG7 siRNA 24 h prior to ML246 treatment. Results are quantified from 4 independent experiments.
In addition to Becn2^F121A-mediated genetic activation of autophagy, it was decided to further study whether stimulating autophagy pharmacologically is also protective against neurodegenerative progression. A brain-penetrable autophagy-inducing small molecule ML246 (metarrestin) was recently identified, and analyzed its effects on the clearance of aggregate-prone proteins in vitro and in vivo. For in vitro analyses, the HEK293 cell line stably expressing APP (APP-HEK293) was utilized, in which the produced Aβ molecules are efficiently secreted, to study the effect of ML246 on amyloid metabolism. […] In addition, cultured WT primary cortical neurons treated with the conditioned media from ML246-treated APP-HEK293 cells underwent a lower level of apoptotic cell death than those treated with media from vehicle-treated APP-HEK293 cells (FIG. 18B).
Dot blot assay. […] Protein concentration was quantified using BCA Assay (Pierce). […] The membrane was stained with Ponceau S, and the dot blot signal on the membrane was detected by immunostaining with Aβ42 antibody (Invitrogen, 700254, 1:1000) and HRP-conjugated secondary antibody (Santa Cruz Biotechnology, sc2004, 1:2000). […]

GFP-LC3 transgenic mice = test: GFP-LC3 puncta in tissues of GFP-LC3 transgenic mice; format: in vivo, mouse; conditions: for numbers of GFP-LC3 puncta (autophagosomes): mouse brain; for number of GFP-LC3 puncta (autophagosomes): brain frontal cortex, heart, liver and muscle
Text: Results represent mean±s.d. Scale bar, 25 μm. N>100 cells or N2::4 mice.
Scale bar, 20 μm. Results represent mean±s.d. N≥4 mice.
Results represent mean±s.e.m. Statistics compare each value to the one with DMSO treatment. *, P<0.05; **, P<0.01; ***, P<0.001, t test. Scale bar: 20 μm.
To test this hypothesis, it was confirmed that Rg2 induces autophagy in vivo, by injecting Rg2 intraperitoneally (i.p.) into transgenic mice globally expressing GFP-LC3. […] Furthermore, in vivo autophagy induction by Rg2 via GFP-LC3 puncta assays in both muscle and brain was examined. […] Thus, the majority of Rg2 is not bound by plasma proteins and is freely available. Taken together, Rg2 was identified as a new in vivo autophagy inducer in vivo.
Autophagy analyses. For assessment of autophagy in vivo, 8-week old male WT and Becn 1FA/FA mice crossed to GFP-LC3 mice were exercised for 90 minutes, or starved for 48 h, and then anaesthetized by isoflurane and perfused with 4% PFA Brain and muscle samples were fixed in 4% PFA overnight, 15% sucrose for 4 h and 30% sucrose overnight before frozen sections were prepared. The number of GFP-LC3 puncta per unit area of tissue was quantified by fluorescence microscopy. Autophagy in vivo was also analyzed by western blot analysis of brain tissue extracts with antibodies against LC3 and p62/SQSTM1 (see below for details).

[2] = tested on: HTT65Q and HTT103Q aggregates; test: Filter trap assay of polyQ HTT aggregates in HeLa cells; format: cell-based
Experimental: Cells were transfected with nontargeting control (NC) or ATG7 siRNA 24 h prior to Rg2 treatment for another 24 h. HTT aggregates were analyzed by lysate filtration through 0.2 μm nitrocellulose membrane. Cells treated with tetracycline served as negative control.
ML246 promotes the removal of intracellular aggregates formed by polyglutamine (polyQ)-expansion proteins. HeLa cell lines stably expressing tetracycline-repressible expanded polyQ-repeat protein HTT (huntingtin) was used as a model, HTT65Q and HTT103Q. In contrast to the HTT protein with the normal number of glutamine repeats (HTT25Q), HTT65Q and HTT103Q formed insoluble polyQ aggregates larger than 0.2-μm diameter, which can be detected by filter trap assay. […] Fluorescence imaging further confirmed that ML246 administration decreased the number of cells positive for HTT aggregates, which is also in an ATG7-dependent manner (FIG. S6B).
Accordingly, whether Rg2 affects the clearance of proteinaceous inclusions in vitro was next determined, using HeLa cell lines expressing tetracycline-repressible expanded polyglutamine (polyQ)-repeat protein HTT (huntingtin), HTT65Q and HTT103Q. Unlike the HTT protein with the normal number of glutamine repeats (HTT25Q), HTT65Q and HTT103Q formed insoluble polyQ aggregates larger than 0.2-μm diameter, which were detected by filter trap assays (FIG. 5A).
Filter trap assay. HeLa cells stably expressing CFP-HTT25Q, CFP-HTT65Q and CFP-HTT103Q were treated with 100 ng/ml tetracycline (IBI Scientific, IB02200) for 48 h, or 0.5 μM ML246 for 24 h with control or ATG7 siRNA (GE Dharmacon ON-TARGETplus control or ATG7 SMARTpool siRNA) for 48 h. Cells were then collected and lysed in lysis buffer containing 0.5% NP-40 for 30 min at 4° C. After centrifugation, the pellet was digested with 0.5 mg/ml DNasel (in 20 mM Tris-Cl, pH 8.0) for 1 h at 37° C., and dissolved into lysates containing insoluble aggregates by 2% SDS, 50 mM DTT and 20 mM EDTA. The lysates were then added onto 0.2 μm nitrocellulose membrane that was pre-equilibrated with 2% SDS/TBS for 30 min, and were filtered through the membrane by gentle vacuum using the Bio-Dot SF microfiltration apparatus (Bio-Rad). The signal was detected by immunostaining with the HRP-conjugated GFP antibody (Santa Cruz Biotechnology, sc9996, 1:1000).

[3] = tested on: Beclin 2-GASP1 interaction; test: Coimmunoprecipitation of endogenous GASP1 with Flag-human Beclin 2 in HEK293 cells; format: cell-based; conditions: 3 h
Text: Based on this model, the effect of these inducers on the Beclin 2-GASP1 interaction in vitro and in mouse brain were subsequently examined.

[4] = mouse, in vivo
5XFAD mice = test: Open-field test of 5XFAD mice; format: in vivo, mouse; conditions: Rg2-treated vs vehicle-treated 5XFAD mice
mouse models of AD = conditions: cited from earlier work

## N=c1c2c(-c3ccccc3)c(-c3ccccc3)n(Cc3ccccc3)c2ncn1[C@H]1CC[C@H](O)CC1 [ML246]
[1]; APP-HEK293 cells, 24 h
  level of secreted Aβ in the conditioned media: significantly reduced
[1]; siRNA knockdown of ATG7
  ML246-mediated reduction of secreted Aβ42: reversed
GFP-LC3 transgenic mice
  numbers of GFP-LC3 puncta (autophagosomes): markedly increased
[2]; 0.5 μM ML246, 24 h
  accumulation of HTT65Q and HTT103Q aggregates: decreased
[2]; ML246 with knockdown of ATG7
  reduction of HTT65Q and HTT103Q aggregates: prevents this reduction
[3]
  coimmunoprecipitation of endogenous GASP1 by Beclin 2: potently blocked

## CC(C)=CCC[C@](C)(O)[C@H]1CC[C@]2(C)[C@@H]1[C@H](O)C[C@@H]1[C@@]3(C)CC[C@H](O)C(C)(C)[C@@H]3[C@@H](O[C@@H]3O[C@H](CO)[C@@H](O)[C@H](O)[C@H]3O[C@@H]3O[C@@H](C)[C@H](O)[C@@H](O)[C@H]3O)C[C@]12C [Rg2, ginsenoside Rg2]
[4]
  food intake: does not alter
5XFAD mice
  locomotor activity (distance travelled): no rescue
Mouse models of AD
  amyloid burden and memory deficit: reduces amyloid burden and memory deficit
GFP-LC3 transgenic mice; 10 mg/kg i.p.
  number of GFP-LC3 puncta (autophagosomes): significantly increases
GFP-LC3 transgenic mice; 20 mg/kg i.p.
  number of GFP-LC3 puncta (autophagosomes): significantly increases
GFP-LC3 transgenic mice; brain
  duration of autophagy activity: at least 24 h
  time of peak of autophagy activity: 4 h
GFP-LC3 transgenic mice
  numbers of GFP-LC3 puncta (autophagosomes): markedly increased
GFP-LC3 transgenic mice; muscle
  time of decline of autophagy to the basal level: 8 to 16 h
  time of peak of induced autophagy: 4 h
[2]; Rg2, 24 h
  accumulation of HTT65Q and HTT103Q aggregates: decreased accumulation
[2]; Rg2 with knockdown of ATG7
  effect on HTT aggregates: abolished
